The source of these data is ChEMBL document CHEMBL1201862, “PubChem BioAssay data set” (2004).

Structures are written as SMILES. The source made the active and inactive calls. Cut-off read from the data, not from the text of the source, for most assays here: actives have a measured EC50 and inactives only a lower limit.

Usually AC50 stands for the midpoint of the concentration-response curve, whichever way the signal moves. Usually EC50 stands for the concentration at which the effect is half-maximal.

Targets include Cytochrome P450 3A4 (Homo sapiens, UniProt P08684); Cytochrome P450 2D6 (Homo sapiens, UniProt P10635); Cytochrome P450 2C9 (Homo sapiens, UniProt P11712).
The next assay addresses T1, Cytochrome P450 1A2 (Homo sapiens, UniProt P05177).
T1 sequence (P05177 whole entry): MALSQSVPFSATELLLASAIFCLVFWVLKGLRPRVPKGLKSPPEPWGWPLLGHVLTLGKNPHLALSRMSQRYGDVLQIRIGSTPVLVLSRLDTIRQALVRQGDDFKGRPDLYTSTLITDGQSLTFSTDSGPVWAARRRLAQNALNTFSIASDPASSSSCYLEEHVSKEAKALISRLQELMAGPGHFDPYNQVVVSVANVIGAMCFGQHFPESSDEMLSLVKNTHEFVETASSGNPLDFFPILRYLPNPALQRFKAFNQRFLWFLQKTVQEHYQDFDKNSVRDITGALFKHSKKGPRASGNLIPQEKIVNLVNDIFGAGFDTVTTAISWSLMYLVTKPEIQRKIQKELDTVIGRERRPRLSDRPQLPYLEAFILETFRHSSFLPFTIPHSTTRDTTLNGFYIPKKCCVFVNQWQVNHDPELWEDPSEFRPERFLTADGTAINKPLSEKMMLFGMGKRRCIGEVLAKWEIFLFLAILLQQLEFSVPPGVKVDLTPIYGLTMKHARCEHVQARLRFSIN

Assay [1] is described as follows: luciferase reporter signal suppression in cells – H4 neuroglioma cells, luminescence, dose response (AID 1990). It counts as functional, cell-based. (Reporter assays use an easily measured gene product as a stand-in for the process of interest.)
The nature of assay [2]: Luminescence Cell-Based Dose Response HTS to Identify Inhibitors of 5'UTR Stem-Loop Driven Prion Protein mRNA Translation in H4 Neuroglioblastoma Cells. [Related pubchem assays: 1827 (Project Summary), 1813 (Primary HTS)]. It counts as functional.
Assay [3] is described as follows: alpha-synuclein stem-loop luciferase translation blockers – H4 neuroglioma cells, luminescence, confirmation (AID 1988). It counts as functional, cell-based.
Assay [4] can be described thus: NIH3T3 cell viability loss – ATP luminescence, mouse fibroblasts, counter-screen, dose response (AID 2010).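 Note: cells exposed to compound for about 90 hours before reading.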 Format: functional, cell-based. A general note: A counterscreen serves to expose hits that act by an unwanted route or on another target.
Assay [5] can be described thus: Trypanosoma cruzi growth suppression in host cells – NIH3T3 host cells, beta-gal luminescence, confirmation (AID 2044).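 Note: intracellular parasites grown in NIH/3T3 mouse fibroblasts as host cells; luminescent beta-galactosidase reporter signal from transgenic T. cruzi replicating inside host cells; inhibitors lower the luminescence signal.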 Format: functional, cell-based.
A short description of assay [6]: Luminescence Cell-Based Dose Retest to Confirm Inhibitors of Cancer Stem Cells. [Related pubchem assays (depositor defined):AID2717, AID2721]. It counts as functional. The settings on record: Homo sapiens.
For a further assay, the system named is INS1. Briefly: INS-1E survival protection against cytokine death – cell-based, luminescence, retest, dose response (AID 449756).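 Note: cell death triggered by IL-1 beta plus TNF-alpha plus IFN-gamma mixture; protective hits raise ATP signal compared with cytokine alone wells.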 It counts as functional. The following applies: Rattus norvegicus.
A further assay deals with T2, Streptokinase A (Streptococcus pyogenes serotype M1, UniProt P10520).
T2 sequence (P10520 whole entry): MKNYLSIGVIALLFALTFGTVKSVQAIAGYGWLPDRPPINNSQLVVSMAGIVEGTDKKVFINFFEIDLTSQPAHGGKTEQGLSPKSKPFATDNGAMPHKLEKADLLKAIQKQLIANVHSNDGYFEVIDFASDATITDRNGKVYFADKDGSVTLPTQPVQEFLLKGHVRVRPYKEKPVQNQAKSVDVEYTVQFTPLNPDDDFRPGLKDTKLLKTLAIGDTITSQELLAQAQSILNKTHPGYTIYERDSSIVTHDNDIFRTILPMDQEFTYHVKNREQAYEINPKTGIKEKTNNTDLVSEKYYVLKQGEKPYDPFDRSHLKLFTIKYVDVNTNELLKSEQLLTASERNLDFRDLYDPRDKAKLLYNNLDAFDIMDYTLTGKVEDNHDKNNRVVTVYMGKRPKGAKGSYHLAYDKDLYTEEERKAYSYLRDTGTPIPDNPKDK
Briefly: viability-normalized secreted streptokinase activity reduction – plasminogen activation absorbance, OD405, dose response (AID 1914).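 Note: secreted streptokinase activity via plasminogen activation per viability signal from cell pellet.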 Format: functional, Streptococcus pyogenes M1 GAS.

For the next assay, the system named is Streptococcus. Briefly: GAS UMAA2166 growth inhibition – luminescence, BacTiterGlo, counter-screen for streptokinase expression inhibitor project, dose response (AID 1915).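 Note: potency for reduction of bacterial viability or growth.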 Format: functional, organism-based.
The test system of assay [7] is Streptococcus sp. 'group A'. The assay is described as follows: Streptococcus pyogenes SK(-)GAS viability under kanamycin – luminescence, BacTiterGlo, confirmation, counter-screen for streptokinase expression inhibitor project, dose response (AID 1900). It counts as functional, organism-based.
Assay [8] addresses T3, Heat shock factor protein 1 (Mus musculus, UniProt P38532).
T3 sequence (P38532 whole entry): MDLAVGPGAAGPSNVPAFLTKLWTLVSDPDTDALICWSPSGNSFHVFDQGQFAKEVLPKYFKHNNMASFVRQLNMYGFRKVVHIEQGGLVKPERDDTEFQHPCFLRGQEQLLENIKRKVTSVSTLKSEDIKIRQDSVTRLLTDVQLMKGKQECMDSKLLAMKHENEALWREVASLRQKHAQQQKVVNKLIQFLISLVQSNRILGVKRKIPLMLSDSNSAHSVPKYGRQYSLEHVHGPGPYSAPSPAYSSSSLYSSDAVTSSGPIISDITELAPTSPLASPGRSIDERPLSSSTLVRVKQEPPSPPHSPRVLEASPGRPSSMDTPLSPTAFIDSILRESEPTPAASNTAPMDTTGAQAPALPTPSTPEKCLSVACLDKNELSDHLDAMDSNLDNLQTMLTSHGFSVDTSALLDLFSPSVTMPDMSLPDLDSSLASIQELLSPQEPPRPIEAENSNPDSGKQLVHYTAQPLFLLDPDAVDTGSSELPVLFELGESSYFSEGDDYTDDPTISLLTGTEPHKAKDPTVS
Briefly: enhancement of HSF1-driven luciferase signal – cell-based, NIH3T3, luminescence, dose retest, confirmation (AID 435004).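 Note: stress induced by proteasome inhibitor MG132 added 30 min after compound; luciferase reporter driven by HSF1 response element in NIH3T3 cells; actives raise luminescence as potentiators of the MG132 stress response.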 It counts as functional.

The target of another assay is Paired box protein Pax-8 (Homo sapiens, UniProt Q06710). Briefly: PAX8 transcriptional activity inhibition in RMG-I – RMG-I cells, luciferase, cherry-pick, dose response (AID 687027).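 Note: luciferase reporter driven by Pax8 target thyroperoxidase promoter measured by SteadyGlo luminescence.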 It counts as functional, cell-based.
Sequence of Paired box protein Pax-8 (Q06710 whole entry): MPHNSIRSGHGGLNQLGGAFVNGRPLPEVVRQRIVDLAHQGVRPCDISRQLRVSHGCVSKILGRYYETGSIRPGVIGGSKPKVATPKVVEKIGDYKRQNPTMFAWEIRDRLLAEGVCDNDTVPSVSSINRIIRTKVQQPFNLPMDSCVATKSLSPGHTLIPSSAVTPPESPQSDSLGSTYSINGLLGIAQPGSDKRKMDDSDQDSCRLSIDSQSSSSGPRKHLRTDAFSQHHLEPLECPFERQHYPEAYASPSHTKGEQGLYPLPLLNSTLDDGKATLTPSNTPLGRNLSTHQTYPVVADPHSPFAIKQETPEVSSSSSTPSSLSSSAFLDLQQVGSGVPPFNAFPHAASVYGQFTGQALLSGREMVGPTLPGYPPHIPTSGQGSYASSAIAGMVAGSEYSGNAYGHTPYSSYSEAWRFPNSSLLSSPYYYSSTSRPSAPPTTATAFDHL

Sequence of Cytochrome P450 3A4 (P08684 whole entry): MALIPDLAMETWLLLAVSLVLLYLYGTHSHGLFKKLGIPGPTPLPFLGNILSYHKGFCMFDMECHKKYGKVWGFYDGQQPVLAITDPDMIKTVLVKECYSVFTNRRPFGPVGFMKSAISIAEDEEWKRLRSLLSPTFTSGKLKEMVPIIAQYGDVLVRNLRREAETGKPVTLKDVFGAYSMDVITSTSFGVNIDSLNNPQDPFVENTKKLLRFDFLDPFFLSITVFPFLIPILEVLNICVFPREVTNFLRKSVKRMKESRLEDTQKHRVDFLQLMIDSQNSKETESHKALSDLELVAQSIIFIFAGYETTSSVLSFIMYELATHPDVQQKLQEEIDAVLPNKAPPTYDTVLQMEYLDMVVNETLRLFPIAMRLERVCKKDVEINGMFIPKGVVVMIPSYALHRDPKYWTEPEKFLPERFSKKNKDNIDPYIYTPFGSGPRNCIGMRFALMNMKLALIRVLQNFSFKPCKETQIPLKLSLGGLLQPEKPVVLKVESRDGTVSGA
Sequence of Cytochrome P450 2C9 (P11712 whole entry): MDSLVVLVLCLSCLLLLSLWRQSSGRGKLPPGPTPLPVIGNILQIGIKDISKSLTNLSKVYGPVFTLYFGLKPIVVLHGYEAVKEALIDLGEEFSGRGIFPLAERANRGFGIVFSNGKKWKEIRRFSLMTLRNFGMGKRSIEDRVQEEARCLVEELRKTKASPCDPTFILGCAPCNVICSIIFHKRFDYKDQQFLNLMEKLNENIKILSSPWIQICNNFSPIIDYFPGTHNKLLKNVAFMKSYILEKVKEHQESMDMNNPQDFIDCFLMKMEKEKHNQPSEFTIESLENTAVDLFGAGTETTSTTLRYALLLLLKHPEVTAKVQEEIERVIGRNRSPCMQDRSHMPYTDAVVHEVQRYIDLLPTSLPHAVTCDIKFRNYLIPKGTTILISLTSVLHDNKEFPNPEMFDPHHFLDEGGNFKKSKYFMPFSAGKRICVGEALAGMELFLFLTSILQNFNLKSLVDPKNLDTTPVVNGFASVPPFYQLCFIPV
Sequence of Cytochrome P450 2D6 (P10635 whole entry): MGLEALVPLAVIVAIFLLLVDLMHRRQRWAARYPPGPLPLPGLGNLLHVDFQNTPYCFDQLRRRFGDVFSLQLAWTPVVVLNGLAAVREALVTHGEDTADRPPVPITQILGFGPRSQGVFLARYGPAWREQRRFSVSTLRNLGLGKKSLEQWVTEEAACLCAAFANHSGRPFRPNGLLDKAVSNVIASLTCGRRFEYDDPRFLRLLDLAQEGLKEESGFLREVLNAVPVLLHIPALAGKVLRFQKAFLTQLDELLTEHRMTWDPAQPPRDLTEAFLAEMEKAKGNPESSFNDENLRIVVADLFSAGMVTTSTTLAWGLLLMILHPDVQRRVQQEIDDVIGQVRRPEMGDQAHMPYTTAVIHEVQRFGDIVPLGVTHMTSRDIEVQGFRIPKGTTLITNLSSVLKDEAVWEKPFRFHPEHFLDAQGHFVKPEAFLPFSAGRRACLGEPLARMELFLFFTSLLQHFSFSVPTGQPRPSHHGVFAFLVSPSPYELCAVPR

With `CC(Cc1ccccc1)N/C=C1\CC(=O)NC1=O` (stereo unspecified), the AC50 at Cytochrome P450 3A4 is 3.98 µM (inconclusive). Consider `Cc1ccc(Oc2nnc(-c3ccccc3)cc2C#N)cc1`, for which, at Cytochrome P450 1A2, the AC50 is 2.51 µM (inconclusive). As to `O=C(NCCCN1CCN(C2CCCCC2)CC1)Nc1ccccc1C(F)(F)F`, at Cytochrome P450 1A2, the AC50 was 25.1 µM (inconclusive).

In the case of `CCNc1ncc2nc(-c3ccc(F)cc3)c(=O)n(CCC#N)c2n1`, the values for the AC50 at Cytochrome P450 1A2 and at Cytochrome P450 2D6 were 0.631 µM (inconclusive) and 0.1 µM (inconclusive), respectively. As to `CCC/C=C(\CCC)C(NC(=O)c1cccs1)c1ccc(C(F)(F)F)cc1` (stereo unspecified), the AC50 on Cytochrome P450 1A2 is 3.16 µM (inconclusive); on Cytochrome P450 2C9, 0.501 µM (inconclusive). On to `CO[C@@H]1/C=C\CC(=O)N[C@@H](C)C(=O)OC[C@@H](OC)[C@H](C)CCCC(=O)OC[C@H]1C`, for which, at Cytochrome P450 3A4, the AC50 was 3.16 µM (inconclusive).

With `COC(=O)[C@@H]1CC[C@H](C)[C@@H](c2ccc(C)cc2)N1C(=O)c1ccc(/C=N\O[C@@H](C)c2cn([C@H]3COC[C@H]3O)nn2)cc1`, the AC50 at Cytochrome P450 2C9 and at Cytochrome P450 3A4 was 3.16 µM (inconclusive) in each case.

Consider `COc1ccc(-c2noc(CSc3nnc(CCc4ccccc4)n3-c3ccccc3)n2)cc1OC`, for which the EC50 was 14 µM (active) in assay [1], 14.5 µM (active) in assay [2] and > 120 µM (not active) in assay [3]. Turning to `CCN(CC)c1ccc(NC(=O)COc2ccc(C#N)cc2)cc1S(=O)(=O)Nc1ccc(OC)cc1`, the concentration for a half-maximal effect (EC50) is 20.6 µM (active) in [1], > 120 µM (not active) in [2] and 92.7 µM (active) in [3].

On to `Nc1sc(-c2ccccc2)n[n+]1Cc1cccc2cccnc12`, for which the 50% effective concentration (EC50) was > 60 µM (not active) in assay [4]; > 120 µM (not active) in assay [1]; 2.77 µM (active) in assay [5]; > 120 µM (not active) in assay [2]; > 120 µM (not active) in [3].

Consider `CC(=O)c1c(O)c(C)c(-c2ccccc2)n(-c2ccccc2)c1=O`, for which, at Cytochrome P450 1A2, the AC50 is 6.31 µM (inconclusive).

As to `Cc1cccc(NC(=O)c2nc[nH]c2C(=O)N[C@@H](C)c2ccccc2)c1`, the AC50 in assay [6] is 7.02 µM (active). Turning to `CCN(CC)Cc1nc(O)c2c(n1)-c1ccccc1CC21CCCC1`, the AC50 on Cytochrome P450 3A4 was 14.1 µM (inconclusive). Take `Cc1cc(=O)n2nc(N3CCCC(C(=O)N4CCc5ccccc54)C3)sc2n1` (stereo unspecified): the EC50 is 22.1 µM (active) in assay [1], > 120 µM (not active) in assay [2] and 34.1 µM (active) in assay [3]. As for `COC(=O)c1cn(-c2ccc(Cl)cc2)c(=O)c2ccccc12`, the half-maximal effective concentration (EC50) in assay [1] was 16.2 µM (active); in assay [2], > 60 µM (not active); in assay [3], > 120 µM (not active).

In the case of `COc1ccc(/C(O)=C/C2=NCCc3cc(OC)c(OC)cc32)cc1OC`, the figures for the EC50 in [1], in assay [2] and in assay [3] were > 120 µM (not active), > 120 µM (not active) and 84.3 µM (active), respectively. Regarding `c1ccc(-c2nnc(CSc3ccc4c(c3)OCCO4)o2)cc1`, in the assay with INS1, the AC50 is > 260 µM (inactive). With `COC(=O)c1cc2ccsc2n1CC(=O)Nc1cc(Cl)ccc1OC`, the EC50 in [1] was 18.8 µM (active); in [2], > 120 µM (not active); in assay [3] it was 10.9 µM (active). For `COc1ccc(CNC(=O)C2CCN(c3nc(OC)nc(OC)n3)CC2)cc1`, in that order: > 120 µM (not active), > 120 µM (not active) and > 120 µM (not active). Take `C/C(=C\C1CCCCC1)C(NC(=O)c1ccc(C(F)(F)F)cc1)c1ccc(-c2ccccc2)cc1` (stereo unspecified): the AC50 on Cytochrome P450 3A4 was 12.6 µM (inconclusive). In the case of `CC1CCc2c(sc3nc(C4CC4)nc(N4CCN(C(=O)c5ccco5)CC4)c23)C1` (stereo unspecified), in the assay with INS1, the AC50 was 4.18 µM (active). The EC50 on Streptokinase A is 3.24 µM (active); in the assay with Streptococcus it was 9.93 µM (active); in assay [7] it was 3.48 µM (active).

In the case of `Cc1nn(-c2ccc(F)cc2)c(Cl)c1/C=C1\C(=O)Nc2ccccc21`, the AC50 in [6] is 1.95 µM (active).

In the case of `Cc1nnc(SCC2=C(C(=O)O)N3C(=O)C(NC(=O)c4cccc(F)c4F)C3SC2)s1` (stereo unspecified), the EC50 on Streptokinase A is > 150 µM (not active); with Streptococcus, 1.01 µM (active); in assay [8], 246 µM (active); in assay [7] it was 0.377 µM (active). `O=C(CN1CCN(c2ncccn2)CC1)NCCC1=CCCCC1`: at Cytochrome P450 3A4, the AC50 is 17.8 µM (inconclusive). Turning to `CC(C)=CCc1c(O)cc2c(c1O)C(=O)CC(c1ccc(O)cc1)O2` (stereo unspecified), the EC50 on Streptokinase A is > 150 µM (not active); with Streptococcus it was 4 µM (active); in assay [7], 3.55 µM (active). Moreover, the AC50 in assay [6] is 3.72 µM (active). For the molecule `O=c1c(CCc2ccccc2)nc2cnc(N3CCNCC3)nc2n1-c1ccccc1`, the half-maximal activity concentration (AC50) on Cytochrome P450 1A2 was 15.8 µM (inconclusive).

As for `O=C(Oc1ccccc1N1C(=O)C2CCCCC2C1=O)c1ccccc1` (stereo unspecified), the figures for the AC50 at Cytochrome P450 1A2 and at Cytochrome P450 2C9 were 15.8 µM (inconclusive) and 11.2 µM (inconclusive), respectively. In the case of `O=C(Nc1cc(Sc2ccccn2)cc([N+](=O)[O-])c1)c1ccc(Cl)cc1`, the AC50 in the assay with INS1 is 5.46 µM (active). For the molecule `OC(COCc1ccccc1)Cn1cnc2ccccc21` (stereo unspecified), on Cytochrome P450 1A2, the AC50 was 15.8 µM (inconclusive). `Oc1ccc(C[C@H]2CNC(=S)N2CC2CCCN2C[C@H](Cc2ccc(O)cc2)N2C[C@H](Cc3ccc(O)cc3)N(CC3CCCCC3)C2=S)cc1` (stereo partly specified): the AC50 on Paired box protein Pax-8 was 6.44 µM (active). On to `COc1ccc(-n2cnnc2)cc1`, for which the AC50 on Cytochrome P450 1A2 is 14.1 µM (inconclusive); at Cytochrome P450 2C9 it was 0.0282 µM (inconclusive). As for `CCCCn1c(SCC(N)=O)nc2sc3c(c2c1=O)CCC3`, the AC50 in [6] is 126 µM (active).

`Cc1nc2ccccc2nc1-c1ccc(/N=[N+](\[O-])c2ccc(-c3nc4ccccc4nc3C)cc2)cc1`: the AC50 at Cytochrome P450 1A2 is 6.31 µM (inconclusive). Consider `C/C(=N\NC(=S)NC(C)C)c1ccc(C(C)(C)C)cc1`, for which the AC50 in [6] was 11 µM (active).

Turning to `COc1cccc(S(=O)(=O)N2CC[C@H]3[C@@H](CO)N(C)c4ccc(C#Cc5ccc(F)cc5)cc4[C@H]32)c1`, at Paired box protein Pax-8, the AC50 is 6.92 µM (active). Take `O=C(NCCCn1ccnc1)c1ccc(-c2ccccc2)cc1`: the AC50 in the assay with INS1 is 7.41 µM (active).

Turning to `Cc1cc(-c2ccccc2)nnc1NCCN1CCOCC1` [MINAPRINE], the AC50 at Cytochrome P450 1A2 was 10 µM (inconclusive); at Cytochrome P450 2D6, 7.94 µM (inconclusive). In the case of `Clc1cc(I)cc(Cl)c1N=C1NCCN1` [PI-CLONIDINE], the AC50 on Cytochrome P450 1A2 was 15.8 µM (inconclusive).
